What was measured:
[1] = molecular target: O-phosphoserine sulfhydrylase from Mycolicibacterium smegmatis (OPSSmsm), SEQ ID NO: 104 (Mycolicibacterium smegmatis, UniProt A0R1X2); assay: O-phosphoserine sulfhydrylase (OPSS) activity, cysteine formation (Gaitonde method), kinetic parameters of purified enzyme; format: biochemical, Mycolicibacterium smegmatis (strain ATCC 700084 / mc(2)155)
[2] = system: O-phosphoserine sulfhydrylase from Dethiobacter alkaliphilus (OPSSdal), SEQ ID NO: 106; assay: as above; format: biochemical, Dethiobacter alkaliphilus AHT 1
Procedure: This reaction solution, except the enzymes, were incubated at 30°C for 10 min. After then, 0.5 to 1 µg of purified OPSS was added to the reaction solution, incubated at 30°C. 100 µl of the enzyme reaction solutions were taken after 5 min, 10 min, 15 min and mixed with 50 µl cold 1.5 M TCA to stop the enzymatic reaction. The cysteine concentrations in the enzyme reaction solution were quantified by measuring absorbance at OD560 nm according to Gaitonde method (Gaitonde,M.K. (1967), Biochem. J. 104, 627-633).
Kinetic parameters were determined using Sigmaplot.

[3] = molecular target: O-phosphoserine sulfhydrylase from Geobacter sulfurreducens (OPSSgsu), SEQ ID NO: 2 (Geobacter sulfurreducens, UniProt Q747V7); assay: as above; format: biochemical; settings: pH 7.5, 30°C; read-out: Km (Na2S)
[4] = molecular target: O-phosphoserine sulfhydrylase from Rhodothermus marinus (OPSSrma), SEQ ID NO: 4 (Rhodothermus marinus, UniProt D0MJA5); assay: as above; format: biochemical, Rhodothermus marinus (strain ATCC 43812 / DSM 4252 / R-10); settings: pH 7.5, 30°C; read-out: Km (Na2S)
[5] = substrate: N[C@@H](COP(=O)(O)O)C(=O)O; assay: purified protein, by the assay type; settings: fixed Na2S 50 mM, O-phosphoserine 0.5-100 mM, 100 mM Hepes pH 7.5, 30°C

Chain of O-phosphoserine sulfhydrylase from Mycolicibacterium smegmatis (OPSSmsm), SEQ ID NO: 104 (A0R1X2 1-323): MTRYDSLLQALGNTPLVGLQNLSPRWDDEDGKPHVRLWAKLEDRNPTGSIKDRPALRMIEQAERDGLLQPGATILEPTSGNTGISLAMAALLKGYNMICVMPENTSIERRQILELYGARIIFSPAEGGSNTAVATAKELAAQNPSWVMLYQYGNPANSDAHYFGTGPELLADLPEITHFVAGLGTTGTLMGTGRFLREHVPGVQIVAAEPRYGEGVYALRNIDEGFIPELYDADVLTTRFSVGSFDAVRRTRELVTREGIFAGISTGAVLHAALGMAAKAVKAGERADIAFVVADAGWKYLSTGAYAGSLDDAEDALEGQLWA

In the case of N[C@@H](COP(=O)(O)O)C(=O)O [OPS, O-phosphoserine], the inhibition at 20000 µM ([1]; read-out: activity lost (inhibition by O-Phosphoserine)) is reported as 50%, the kcat ([2]; calculated from the O-phosphoserine saturation curves, Na2S 50 mM, pH 7.5, 30°C) is reported as 19 s⁻¹ and the Km ([2]; read-out: Km (OPS), fixed Na2S 50 mM, O-phosphoserine 0.5-100 mM, 100 mM Hepes pH 7.5, 30°C) is reported as 17 mM.

For Na2S, the Km ([1]; pH 7.5, 30°C, read-out: Km (Na2S)) was 1.4 mM, the Km [3] was 16 mM and the Km [4] was 13 mM.

B1: O-phosphoserine sulfhydrylase from Geobacter sulfurreducens (OPSSgsu), SEQ ID NO: 2 (Geobacter sulfurreducens PCA) (protein)
chain: MEHPPFSLAGSIGATPLVELRHLNPNPRVRILAKLEGNNVGGSVKDRPALYMLAKAEESGELVPEKTILEPTSGNTGIALAMLGTVKGYRVKLVMPACVSLERRAVLEAYGAELVLSPHDEATDGAIRLAHRILEEEPDRYYMPNQYANPNNPLAHYETTAPEIFRDTGGAVDFFVAGMGTGGTLMGTSRYFREKKPSVRIVGVEPRLGHKVQGLKNMQEAIVPPIYHPEALDLKLTVHDEPAFDTARELAAREGLFVGMSSGAAVAGAVQVARDAPAGSTIVVLLPDRGDRYLSTVLFRSVCGKCPP
Work on B1 yielded a Km ([5]; other: OPSSgsu) of 16 mM and a kcat ([5]; other: OPSSgsu) of 58 s⁻¹.

B2: O-phosphoserine sulfhydrylase from Rhodothermus marinus (OPSSrma), SEQ ID NO: 4 (Rhodothermus marinus DSM 4252) (protein)
chain: MFAETLQTTTNTRPLSGTELIRAIGHTPLIRLRRVARHLPETVAVYVKAEHLNPGGSVKDRPALRMVLEGLRSGALREGRALIDATSGNTGIAYAMLGAALGFPVTLAMPANASPERKRILKAYGAELILTDPMEGTDGAQRYVRELVQQEPDRYFYPDQYNNDANWRAHYEGTGIEILEQTGGRVTHFVAGLGTTGTFVGVSRRLKAHNPAIRCYALQPDSPLHGLEGLKHLETAIVPGIYDPSLVDEHLSCSTEEAFEMTRRLAREEGLFVGPSSGANVAAALHIAEQLDRGVVVTVLCDTGARYLSEPFWEETP
Work on B2 yielded a Km ([5]; other: OPSSrma) of 6 mM and a kcat ([5]; other: OPSSrma) of 47 s⁻¹.

Source: EP4467640A1, “MICROORGANISM AND METHOD FOR THE IMPROVED PRODUCTION OF CYSTEINE AND/OR DERIVATIVES THEREOF” (Metabolic Explorer, priority 2023, dated 2024)
